According to US10745382B2 (BRISTOL-MYERS SQUIBB COMPANY, priority 2015, dated 2020):
Where two headings read alike, the source gives them in different places.

Target: T1, PD-1/PD-L1 (Homo sapiens, UniProt Q9NZQ7)
T1 construct: made in house; host or cells: HEK293T
Assay: PD-1/PD-L1 Homogenous Time-Resolved Fluorescence (HTRF) binding assay
Conditions: PD-L1-His 10 nM, PD-1-Ig 20 nM, read-out: Range or IC50
In short: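 Compounds are tested for blocking the PD-1/PD-L1 interaction in dPBS supplemented with 0.1% BSA and 0.05% (v/v) Tween-20. Tagged proteins are detected with Eu-cryptate anti-Ig and APC anti-His at 1 and 20 nM final.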

T1 sequence (Q9NZQ7 with tags, fused parts or gaps): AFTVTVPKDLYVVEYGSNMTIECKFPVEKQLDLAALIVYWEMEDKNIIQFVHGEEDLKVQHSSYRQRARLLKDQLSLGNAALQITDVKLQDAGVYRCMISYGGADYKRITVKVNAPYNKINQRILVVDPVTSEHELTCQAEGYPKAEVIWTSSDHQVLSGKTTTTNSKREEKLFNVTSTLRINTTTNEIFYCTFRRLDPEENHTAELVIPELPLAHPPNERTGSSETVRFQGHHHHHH

Structure (SMILES)	IC50 (value given as range class)	IC50 (numeric IC50)
Cc1c(COc2cc(OCCCN3CC[C@@H](O)C3)c(CN[C@](C)(CO)C(=O)O)cc2Cl)cccc1-c1cccc(OCCCN2CC[C@@H](O)C2)c1C [Example 1531, (R)-2-((5-chloro-2-(3-((R)-3-hydroxypyrrolidin-1-yl)propoxy)-4-((3′-(3-((R)-3-hydroxypyrrolidin-1-yl)propoxy)-2,2′-dimethyl-[1,1′-biphenyl]-3-yl)methoxy)benzyl)amino)-3-hydroxy-2-methylpropanoic Acid]	0.21 to 10 nM	–
Cc1c(COc2cc(OCc3cncc(C#N)c3)c(CN(CCC(F)(F)F)C(CO)CO)cc2Cl)cccc1-c1cccc(OCCCN2CCC(O)(CO)CC2)c1Cl [Example 2074, 5-((4-chloro-5-((2′-chloro-3′-(3-(4-hydroxy-4-(hydroxymethyl)piperidin-1-yl)propoxy)-2-methyl-[1,1′-biphenyl]-3-yl)methoxy)-2-(((1,3-dihydroxypropan-2-yl)(3,3,3-trifluoropropyl)amino)methyl)phenoxy)methyl)nicotinonitrile]	0.21 to 10 nM	–
Cc1ccc(OCCCN2CC[C@@H](O)C2)c(C)c1-c1cccc(COc2cc(OCc3cncc(C#N)c3)c(CN[C@](C)(CO)C(=O)O)cc2Cl)c1C [Example 3029, (2R)-2-((5-chloro-2-((5-cyanopyridin-3-yl)methoxy)-4-((3′-(3-((R)-3-hydroxypyrrolidin-1-yl)propoxy)-2,2′,6′-trimethyl-[1,1′-biphenyl]-3-yl)methoxy)benzyl)amino)-3-hydroxy-2-methylpropanoic Acid]	0.21 to 10 nM	–
Cc1c(OCCCNC[C@H](O)CO)cccc1-c1cccc(COc2cc(OCc3cncc(C#N)c3)c(CNC(CO)CO)cc2Cl)c1Cl [Example 2299, (S)-5-((4-chloro-5-((2-chloro-3′-(3-((2,3-dihydroxypropyl)amino)propoxy)-2′-methyl-[1,1′-biphenyl]-3-yl)methoxy)-2-(((1,3-dihydroxypropan-2-yl)amino)methyl)phenoxy)methyl)nicotinonitrile]	0.21 to 10 nM	–
Cc1c(COc2cc(OCc3cncc(C#N)c3)c(CO)cc2Cl)cccc1-c1cc(OCCCN2CC[C@@H](O)C2)cc(OCCCN2CC[C@@H](O)C2)c1 [Example 3063, 5-((5-((3′,5′-bis(3-((R)-3-hydroxypyrrolidin-1-yl)propoxy)-2-methyl-[1,1′-biphenyl]-3-yl)methoxy)-4-chloro-2-(hydroxymethyl)phenoxy)methyl)nicotinonitrile]	2010 to 10000 nM	–

More lines, now with the values ahead:

IC50 (value given as range class)	IC50 (numeric IC50)	Structure (SMILES)
0.21 to 10 nM	–	COC(=O)C1(O)CCN(CCCOc2cccc(-c3cccc(COc4cc(OCc5cncc(S(C)(=O)=O)c5)c(CN[C@@](C)(CO)C(=O)O)cc4Cl)c3C)c2C)CC1 [Example 1039, (S)-2-((5-chloro-4-((3′-(3-(4-hydroxy-4-(methoxycarbonyl)piperidin-1-yl)propoxy)-2,2′-dimethyl-[1,1′-biphenyl]-3-yl)methoxy)-2-((5-(methylsulfonyl)pyridin-3-yl)methoxy)benzyl)amino)-3-hydroxy-2-methylpropanoic Acid]
0.21 to 10 nM	–	Cc1c(COc2cc(OCc3cncc(S(C)(=O)=O)c3)c(CN[C@](C)(CO)C(=O)O)cc2Cl)cccc1-c1cccc(OCCCN2CC[C@@H](C(=O)O)C2)c1C [Example 1083, (R)-1-(3-((3′-((4-((((R)-2-carboxy-1-hydroxypropan-2-yl)amino)methyl)-2-chloro-5-((5-(methylsulfonyl)pyridin-3-yl)methoxy)phenoxy)methyl)-2,2′-dimethyl-[1,1′-biphenyl]-3-yl)oxy)propyl)pyrrolidine-3-carboxylic Acid]
–	3 nM	Cc1c(OCCCN2CCOCC2)cccc1-c1cccc(COc2cc(OCc3cncc(C#N)c3)c(CN3CCCC[C@H]3C(=O)O)cc2Cl)c1Cl [Example 2309, (S)-1-(5-chloro-4-((2-chloro-2′-methyl-3′-(3-morpholinopropoxy)-[1,1′-biphenyl]-3-yl)methoxy)-2-((5-cyanopyridin-3-yl)methoxy)benzyl)piperidine-2-carboxylic Acid]
